The results in this text go back to article PMC9862186 (International Journal of Molecular Sciences, 2023).

This data set is described as follows: in vivo. The procedure:
A saline solution (0.9% NaCl) was added to a mixture of cinnamaldehyde (density = 1.05 g/mL) and Cremophor® RH 40 (1:1 v/v) in order to obtain a 12.5 mg/mL cinnamaldehyde emulsion in the presence of ethanol (10% of final volume). A group (n = 4) of male Wistar rats (200–250 g) fasted for 24 h was anesthetized during the experimental period and received 0.4 mL via a femoral intravenous infusion (rate = 0.2 mL/min; 2 min) of 12.5 mg/mL cinnamaldehyde emulsion (20 mg/kg cinnamaldehyde dose).
At the end of the infusions and at fixed time points, CSF samples (50 μL) were withdrawn and blood samples (100 μL) were collected. The CSF was withdrawn using the cisternal puncture method described by van den Berg et al., which requires a single needle stick and allows the collection of serials (40–50 μL) CSF samples that are virtually blood-free. A total volume of about a maximum of 150 μL of CSF/rat (i.e., three 50 μL samples/rat) was collected during the experimental session, choosing the time points (n = 3–5, taking into account a maximum of three collections per rat) in order to allow the restoring of the CSF physiological volume.
The samples were centrifuged at 12,500× g for 5 min, then about 300 μL of supernatant were withdrawn and further centrifuged. […] As a control, a blood sample (100 μL) was collected by each rat before the administrations of the drugs. The control samples were immediately added to 300 μL of ice-cold CH3CN in the absence of internal standard, then treated as described above.
For cinnamaldehyde analysis the blood samples were hemolyzed immediately after their collection with 500 μL of ice-cold water, and then 50 μL of 10% sulfosalicylic acid and 50 μL of internal standard (100 μM carbazole dissolved in a water-methanol mixture 50:50 v/v) was added. The samples were extracted twice with 1 mL of water-saturated ethyl acetate, and, after centrifugation at 12,500× g for 10 min, the organic layer was reduced to dryness under a mild nitrogen stream at room temperature. Then, 200 μL of a water-acetonitrile mixture (50:50 v/v) were added, and after centrifugation, 10 μL were analyzed via HPLC (see below) for cinnamaldehyde detection. As a control, a blood sample (100 μL) was collected by each rat before the administration of the drug. The control samples were treated as described above in the absence of internal standard.
In particular, all the AUC values referred to the bloodstream were calculated by the trapezoidal method within the last time point detected, and the remaining area was obtained as the ratio between the compound concentration detected at the last time point and the elimination constant (kel), which was obtained from the slope of the semilogarithmic plots (−slope × 2.3). The clearance (Cl) and distribution volume (Vd) values were calculated according to the non-compartmental model as the ratios “dose/AUC” and “Cl/kel”, respectively, where kel is the elimination constant obtained by the slope of semilogarithmic plot.
The chromatographic apparatus consisted of a modular system (model LC-10 AD VD pump and model SPD-10A VP variable wavelength UV−vis detector; Shimadzu, Kyoto, Japan) and an injection valve with 20 μL sample loop (model 7725; Rheodyne, IDEX, Torrance, CA, USA). Separations were performed at room temperature on a 5 μm Hypersil BDS C-18 column (150 mm × 4.6 mm i.d.; Alltech Italia Srl, Milan, Italy) equipped with a guard column packed with the same Hypersil material. The volume injection was 10 μL. Data acquisition and processing were performed on a personal computer using CLASS-VP Software, version 7.2.1 (Shimadzu Italia, Milan, Italy).
The detector was set at 205 nm.

The mark [1] stands for this setting: male, Wistar, rat, in vivo, iv, 20 mg/kg.

Consider `C=CCc1ccc(O)c(OC)c1` [Eugenol], for which, under “male, Wistar, rat, in vivo, iv”, the Vd turned out to be 3.21 ± 0.247 L/kg, the clearance was 114 ± 2 mL/min/kg and the half-life was determined as 19.4 ± 2.1 min. Under setting [1], the concentration at 5 min was 3600 ± 200 ng/mL and the concentration at 10 min was found to be 2900 ± 100 ng/mL. The k el (male, Wistar, rat, in vivo, iv, kel: pseudo first order kinetic elimination rate constant, rat blood, iv 20 mg/kg (eugenol, cinnamaldehyde), 100 mg/kg (D-limonene), eugenol value terminal) is 0.0006 s⁻¹. For the same molecule, where the note is “rat blood, iv infusion 2 min, 20 mg/kg eugenol and cinnamaldehyde, 100 mg/kg D-limonene, mean ± SE, n = 4”, the “C0: concentration in the bloodstream at the end of infusion” value came out at 16500 ± 200 ng/mL.

The Vd is a proportionality between amount in the body and measured concentration, not a real space. The term clearance denotes the rate of elimination divided by the concentration. For orientation: half-life means the time needed for the level to fall by half in the phase considered.
